Measured values published in publication PMC4254045 (Bioorganic & medicinal chemistry, 2014).
Entries after “also recorded” stand apart in the source; their conditions may differ. Values belong to the compound of their own block, whether it stands above or below them. Square brackets hold non-standard residues; d marks the D form. Peptide text beside a SMILES is read from it. dPhe(4-guanidino) = N=C(N)Nc1ccc(C[C@@H](N)C(=O)O)cc1; Phe(4-guanidino) = N=C(N)Nc1ccc(C[C@H](N)C(=O)O)cc1

What was measured:
rat MrgC = target: T1, rat MrgC (Rattus norvegicus, UniProt Q8R4G1); experiment: FLIPR agonist assay, transiently transfected HEK293 or KNRK cells, rat MrgC; type: cell-based
T1 sequence (Q8R4G1 1-323): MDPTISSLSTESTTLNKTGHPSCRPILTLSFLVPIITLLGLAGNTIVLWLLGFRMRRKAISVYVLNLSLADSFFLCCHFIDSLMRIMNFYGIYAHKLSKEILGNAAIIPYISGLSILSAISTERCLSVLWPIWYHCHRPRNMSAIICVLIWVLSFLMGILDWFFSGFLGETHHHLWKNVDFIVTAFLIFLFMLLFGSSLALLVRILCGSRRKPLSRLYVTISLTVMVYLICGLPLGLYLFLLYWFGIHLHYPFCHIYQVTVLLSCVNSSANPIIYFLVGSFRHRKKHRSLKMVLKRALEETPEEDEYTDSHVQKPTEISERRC

mouse MrgC11 [1] = target: T2, mouse MrgC11 (Mus musculus, UniProt Q8CIP3); experiment: FLIPR agonist assay, transiently transfected HEK293 or KNRK cells, mouse MrgC11; type: cell-based; settings: for agonist activity at mouse MrgC11 (in words): full agonism relative to BAM8-22
T2 sequence (Q8CIP3 1-322): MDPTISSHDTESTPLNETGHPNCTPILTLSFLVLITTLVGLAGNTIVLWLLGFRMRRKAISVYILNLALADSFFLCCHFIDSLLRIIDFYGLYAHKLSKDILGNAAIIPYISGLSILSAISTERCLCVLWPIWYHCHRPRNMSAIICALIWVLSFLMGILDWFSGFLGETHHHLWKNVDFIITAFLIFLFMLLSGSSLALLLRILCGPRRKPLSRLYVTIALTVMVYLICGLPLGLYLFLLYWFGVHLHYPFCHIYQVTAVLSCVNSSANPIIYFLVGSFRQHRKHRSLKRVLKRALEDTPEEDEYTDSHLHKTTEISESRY

human MrgX1 [2] = target: T3, human MrgX1 (Homo sapiens, UniProt Q96LB2); experiment: Antagonist activity in human MrgX1 using BAM8-22; type: cell-based; settings: human MrgX1, BAM8-22 (200 nM) as agonist
T3 sequence (Q96LB2 whole entry): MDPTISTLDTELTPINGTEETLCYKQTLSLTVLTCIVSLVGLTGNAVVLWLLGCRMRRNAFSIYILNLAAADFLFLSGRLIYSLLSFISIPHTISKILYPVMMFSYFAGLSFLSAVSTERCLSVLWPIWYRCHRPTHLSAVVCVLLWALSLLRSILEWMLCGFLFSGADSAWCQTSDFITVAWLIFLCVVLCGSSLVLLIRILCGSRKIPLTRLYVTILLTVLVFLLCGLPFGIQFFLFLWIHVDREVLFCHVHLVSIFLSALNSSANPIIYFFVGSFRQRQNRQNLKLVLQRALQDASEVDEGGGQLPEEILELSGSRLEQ

rats = settings: cited from earlier work
mice = settings: cited from earlier work
human MrgX1 [3] = target: T3, human MrgX1; experiment: FLIPR agonist assay, HEK293 cells stably transfected with human MrgX1; type: cell-based
mouse MrgC11 [4] = target: T2, mouse MrgC11; settings: cited from earlier work
[5] = FLIPR, transiently transfected HEK293 or KNRK cells, average of at least three independent experiments ± SD
[6] = highest concentration tested due to limited solubility

Compound: COc1ccc(-c2ccc(C(=O)Nc3cccc(Cn4ncc(N5CCNCC5)cc4=O)c3C)cc2)cn1 [1c, reference compound]
agonist activity at human MrgX1 (in words) (human MrgX1 [3]; FLIPR): selectively activated human MrgX1
agonist activity at rat MrgC at concentrations up to 2 μM (rat MrgC; [6]): no measurable agonist activity
agonist activity at mouse MrgC11 at concentrations up to 2 μM (mouse MrgC11 [1]; [6]): no measurable agonist activity

Compound: Phe-Met-Arg-Phe-NH2
MrgC11 agonist activity (in words) (mouse MrgC11 [4]): submicromolar

Compound: Phe-Met-D-Arg-Phe-NH2
MrgC11 agonist activity (in words) (mouse MrgC11 [4]): inactive

Compound: N=C(N)NC[C@@H]1CN[C@H](C(=O)N[C@@H](Cc2ccccc2)C(N)=O)C1 [compound 16, (2S,4S)-N-((S)-1-amino-1-oxo-3-phenylpropan-2-yl)-4-(guanidinomethyl)pyrrolidine-2-carboxamide bis(trifluoroacetate)]
agonist activity at rat MrgC (in words) (rat MrgC; FLIPR): failed to show agonist activity

Compound: Arg-Phe
EC50 for activating MrgC11 (in words) (mouse MrgC11 [4]): submicromolar

The next lines start with results.

agonist activity at rat MrgC (in words) (rat MrgC; FLIPR): exhibited agonist activity
fold more potent than 24a at rat MrgC (rat MrgC; relative to diastereomer 24a): ~100 fold
agonist activity at mouse MrgC11 (in words) (mouse MrgC11 [1]; FLIPR): exhibited agonist activity
fold more potent than 24a at mouse MrgC11 (mouse MrgC11 [1]; relative to diastereomer 24a): ~10 fold
Compound: N=C(N)Nc1ccc(C[C@@H](N)C(=O)N[C@@H](Cc2ccccc2)C(N)=O)cc1 [24b, (2R)-2-amino-N-((2S)-1-amino-1-oxo-3-phenylpropan-2-yl)-3-(4-guanidinophenyl)propanamide bis(trifluoroacetate)] (H-[dPhe(4-guanidino)]-Phe-NH2)
antagonist activity at concentrations up to 200 μM (human MrgX1 [2]): Neither Arg-Phe-NH2 nor 24b, however, showed any antagonist activity
effect on neuropathic pain (rats): attenuated neuropathic pain
effect on neuropathic pain (mice): attenuated neuropathic pain

agonist activity at rat MrgC (in words) (rat MrgC; FLIPR): exhibited agonist activity
agonist activity at mouse MrgC11 (in words) (mouse MrgC11 [1]; FLIPR): exhibited agonist activity
Compound: N=C(N)Nc1ccc(C[C@H](N)C(=O)N[C@@H](Cc2ccccc2)C(N)=O)cc1 [24a, (2S)-2-amino-N-((2S)-1-amino-1-oxo-3-phenylpropan-2-yl)-3-(4-guanidinophenyl)propanamide bis(trifluoroacetate)] (H-[Phe(4-guanidino)]-Phe-NH2)

pEC50 Rat MrgC (rat MrgC; [5]): <4
pEC50 Mouse MrgC11 (mouse MrgC11 [1]; [5]): 4.5 ± 0.1
Compound: N=C(N)Nc1cccc(C(N)C(=O)N[C@@H](Cc2ccccc2)C(N)=O)c1 (some centres unmarked) [20b]
agonist activity at rat MrgC (in words) (rat MrgC; FLIPR): failed to show agonist activity; also recorded: Neither of the analogs showed agonist activity

agonist activity at rat MrgC (in words) (rat MrgC; FLIPR): failed to show agonist activity
Compound: N=C(N)N[C@@H]1CN[C@H](C(=O)N[C@@H](Cc2ccccc2)C(N)=O)C1 [compound 12, (2S,4S)-N-((S)-1-amino-1-oxo-3-phenylpropan-2-yl)-4-guanidinopyrrolidine-2-carboxamide bis(trifluoroacetate)]

EC50 (human MrgX1 [3]): > 100 µM
EC50 (rat MrgC): > 100 µM
Compound: N=C(N)Nc1cccc(C(N)C(=O)N[C@@H](Cc2ccccc2)C(N)=O)c1 (some centres unmarked) [20a]
agonist activity at rat MrgC (in words) (rat MrgC; FLIPR): failed to show agonist activity; also recorded: Neither of the analogs showed agonist activity
